Test results reported in patent US12590099B2, “Inhibitors of histone deacetylase useful for the treatment or prevention of HIV infection” (Merck Sharp & Dohme LLC, priority 2018, dated 2026).
Like-named read-outs stand apart in the source and are kept apart here.

Legend:
[1] = target: T1, Recombinant human HDAC3/SMRT heterodimer (Homo sapiens, UniProt O15379); experiment: Human HDAC enzyme inhibitor Fluor-de-Lys assay, HDAC3/SMRT; type: biochemical
T1 construct: FLAG (C); made in house

KARN cells (Jurkat 2C4) = experiment: cells; type: cell-based; conditions: Homo sapiens, Jurkat
In short: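 Luminescence (Steady-Glo, 10 min, room temperature) measured next day in KARN Jurkat 2C4 cells given compounds at up to 40 μM final with 0.4% DMSO. Percent activation normalised to DMSO (0%) and 2 μM SAHA (100%), fitted by 4-parameter curve.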

[2] = read-out: Karn EC50 (nM) 0.1% NHS, 0.1% normal human serum
[3] = read-out: Karn EC50 (nM) 5% NHS, 5% normal human serum
[4] = recombinant human HDAC3/SMRT, Fluor-de-Lys assay
[5] = read-out: Karn EC50 (nM) 0.1% NHS, 0.1% normal human serum, luciferase induction, 100% = 2 μM SAHA
[6] = read-out: Karn EC50 (nM) 5% NHS, 5% normal human serum, luciferase induction, 100% = 2 μM SAHA

T1 sequence (O15379 whole entry): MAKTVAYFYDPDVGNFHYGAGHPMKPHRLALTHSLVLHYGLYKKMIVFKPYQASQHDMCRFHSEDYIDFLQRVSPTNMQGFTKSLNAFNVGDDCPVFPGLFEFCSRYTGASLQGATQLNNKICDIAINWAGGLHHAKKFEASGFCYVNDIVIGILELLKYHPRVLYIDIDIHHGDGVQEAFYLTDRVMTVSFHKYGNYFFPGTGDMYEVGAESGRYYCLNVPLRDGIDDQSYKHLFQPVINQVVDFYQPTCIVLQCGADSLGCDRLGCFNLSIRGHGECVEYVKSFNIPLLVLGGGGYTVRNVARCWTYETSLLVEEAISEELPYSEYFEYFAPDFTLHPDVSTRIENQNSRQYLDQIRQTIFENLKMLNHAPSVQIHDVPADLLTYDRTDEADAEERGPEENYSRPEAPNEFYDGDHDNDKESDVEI
T1 sequence (Q9Y618 1-899 partner limits assumed): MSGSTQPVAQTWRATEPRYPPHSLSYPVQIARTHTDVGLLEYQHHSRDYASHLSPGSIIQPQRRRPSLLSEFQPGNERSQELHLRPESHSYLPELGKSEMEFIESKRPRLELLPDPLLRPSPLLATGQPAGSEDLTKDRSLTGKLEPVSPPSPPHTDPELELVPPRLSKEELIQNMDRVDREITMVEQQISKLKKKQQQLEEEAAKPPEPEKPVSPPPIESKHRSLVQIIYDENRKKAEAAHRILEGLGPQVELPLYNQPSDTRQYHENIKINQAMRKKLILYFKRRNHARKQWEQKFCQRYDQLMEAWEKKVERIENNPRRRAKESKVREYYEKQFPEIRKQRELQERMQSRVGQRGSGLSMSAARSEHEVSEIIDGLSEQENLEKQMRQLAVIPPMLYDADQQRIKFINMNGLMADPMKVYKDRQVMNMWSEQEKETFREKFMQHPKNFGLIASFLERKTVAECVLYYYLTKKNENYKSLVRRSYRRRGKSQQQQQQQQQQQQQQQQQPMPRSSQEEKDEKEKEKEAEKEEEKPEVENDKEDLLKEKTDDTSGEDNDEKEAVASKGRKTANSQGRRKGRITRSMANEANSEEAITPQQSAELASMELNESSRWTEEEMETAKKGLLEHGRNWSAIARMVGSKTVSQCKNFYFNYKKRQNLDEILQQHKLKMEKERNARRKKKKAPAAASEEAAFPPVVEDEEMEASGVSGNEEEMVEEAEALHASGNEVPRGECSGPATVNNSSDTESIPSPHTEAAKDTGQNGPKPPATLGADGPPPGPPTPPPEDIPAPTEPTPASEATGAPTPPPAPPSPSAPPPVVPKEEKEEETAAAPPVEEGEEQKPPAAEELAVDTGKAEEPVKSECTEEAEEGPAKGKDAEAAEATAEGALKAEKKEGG

Row | Compound | IC50 [1] [µM] | EC50 (KARN cells (Jurkat 2C4); [2]) [nM] | EC50 (KARN cells (Jurkat 2C4); [3]) [nM] | IC50 [1, 4] [µM] | EC50 (KARN cells (Jurkat 2C4); [5]) [nM] | EC50 (KARN cells (Jurkat 2C4); [6]) [nM]
1 | CCC(=O)CCCCC[C@H](NC(=O)[C@H]1CC12CCN(C)CC2)c1nc(Cl)c(-c2cc3ccccc3nc2O)[nH]1 [Compound 81, (1S)—N-{(1S)-1-[4-chloro-5-(2-hydroxyquinolin-3-yl)-1H-imidazol-2-yl]-7-oxononyl}-6-methyl-6-azaspiro[2.5]octane-1-carboxamide] | 0.069 | 6430 | 10700 |  |  | 
2 | CCC(=O)CCCCC[C@H](NC(=O)C1=NOC2(CCN(CC3CC3)CC2)C1)c1ncc(-c2cc3ccc(C)nc3cc2OC)o1 [Compound 225] |  |  |  | 0.00114 | 217 | 247
3 | CCC(=O)CCCCC[C@H](NC(=O)C1CC12CCN(CC)CC2)c1nc(-c2ccc(F)cc2)[nH]c1-c1ccn(C)c1 (stereo partly drawn) [Compound 251] |  |  |  | 0.00182 | 143 | 216
4 | CCC(=O)CCCCC[C@H](NC(=O)[C@H]1CC12CCN(C)CC2)c1ncc(-c2ccc3cc(C#N)ccc3c2)[nH]1 [Compound 90] | 0.00038 | 52 | 33 |  |  | 
5 | CCC(=O)CCCCC[C@H](NC(=O)C1CC12CCN(CC)CC2)c1nc(-c2ccc(F)cc2)[nH]c1-c1cccs1 (stereo partly drawn) [Compound 252] |  |  |  | 0.0661 | 1600 | 2880
6 | CCC(=O)CCCCC[C@H](NC(=O)C1CCC2(CC1)CN(C(C)C)C2)c1ncc(-c2cc3ccccc3nc2OC)[nH]1 [Compound 272] |  |  |  | < 0.0015 | 163 | 721
7 | CCC(=O)CCCCC[C@H](NC(=O)C1CCC2(CC1)CNC2)c1nnc(-c2cc3ccccc3nc2OC)o1 [Compound 299] |  |  |  | 0.00656 | 7000 | 9270
8 | CCC(=O)CCCCC[C@H](NC(=O)[C@H]1CC12CCN(C(C)C)CC2)c1ncc(-c2ccc3nc(C)ccc3c2)[nH]1 [Compound 83] | < 0.0015 | 64 | 60 |  |  | 
9 | CCCn1cc(-c2[nH]c(-c3ccc(F)cc3)nc2C(CCCCCC(=O)CC)NC(=O)C2CC23CCN(CC)CC3)cn1 (stereo not drawn) [Compound 254] |  |  |  | 0.0296 | 5340 | 6040
10 | CCC(=O)CCCCC[C@H](NC(=O)C1=NOC2(CCN(C)CC2)C1)c1ncc(-c2cc3cccnc3cc2OC)o1 [Compound 223] |  |  |  | 0.00206 | 272 | 559
11 | CCC(=O)CCCCCC(NC(=O)C1CCC2(CC1)OC(=O)c1ccncc12)c1nnc(-c2cc3ccccc3nc2OC)o1 (stereo not drawn) [Compound 363] |  |  |  | 0.0335 | 2080 | 4810
12 | CCC(=O)CCCCC[C@@H](NC(=O)C1CCC2(CC1)CN(C)C2)c1ncc(-c2ccccc2)[nH]1 [Compound 310] |  |  |  | 0.0104 | 1490 | 1920
13 | CCC(=O)CCCCC[C@H](NC(=O)[C@H]1CC12CCN(C)CC2)c1ncc(-c2ccc3ccc(C)nc3c2F)[nH]1 [Compound 354] |  |  |  | 0.00218 | 264 | 295
14 | CCC(=O)CCCCC[C@H](NC(=O)[C@H]1CC12CCN(CC)CC2)c1ncc(-c2ccc(-n3cccn3)cc2)o1 [Compound 95] | 0.00395 | 522 | 747 |  |  | 
15 | CCC(=O)CCCCC[C@H](NC(=O)[C@H]1CC12CCN(C)CC2)c1ncc(-c2cnc3c(c2)ncn3C)[nH]1 [Compound 256] |  |  |  | 0.0579 | 23700 | > 40000
16 | CCCC(=O)CCCCC[C@H](NC(=O)[C@H]1CC12CCN(C)CC2)c1ncc(-c2ccc(F)cc2)[nH]1 [Compound 239] |  |  |  | 0.0153 | 324 | 581
17 | CCC(=O)CCCCC[C@H](NC(=O)[C@H]1CC12CCN(C)CC2)c1ncc(-c2coc3ccccc3c2=O)[nH]1 [Compound 86] | 0.0121 | 1060 | 1510 |  |  | 
18 | CCC(=O)CCCCC[C@@H](NC(=O)C1CCC2(CC1)CNC2)c1ncc(-c2ccccc2)[nH]1 [Compound 298] |  |  |  | 0.0104 | 7010 | 11800
19 | CCC(=O)CCCCC[C@H](NC(=O)[C@H]1CC12CCN(C)CC2)c1ncc(-c2ccc3nc(C(F)(F)F)ccc3c2)o1 [Compound 78, (1S)-6-methyl-N-[(1S)-7-oxo-1-{5-[2-(trifluoromethyl)quinolin-6-yl]-1,3-oxazol-2-yl}nonyl]-6-azaspiro[2.5]octane-1-carboxamide] | 0.0138 | 911 | 1440 |  |  | 
20 | CCC(=O)CCCCC[C@H](NC(=O)[C@H]1CC12CCN(C)CC2)c1ncc(-c2ccccc2F)[nH]1 [Compound 290] |  |  |  | 0.00408 | 415 | 519
21 | CCC(=O)CCCCC[C@H](NC(=O)C1=NOC2(CCN(CC3CC3)CC2)C1)c1ncc(-c2cc3ccc(=O)n(C)c3cc2OC)o1 [Compound 236] |  |  |  | 0.00107 | 442 | 476
